Assay results: patent publication US20090155228A1, “COMPOUNDS, KITS AND METHODS FOR CONFERRING CYTOPROTECTION” (priority 2006, published 2009)
“And” between values parts separate entries of the source, which are not always exact repeats. Equal entries are not always repeated.

Assays:
[1] = tested on: ABCG2; experiment: RT-Q-PCR ABCG2 transcript level in monocyte-derived DCs; format: cell-based, human
Description: (§1) Cell culture and ligand treatment—Monocytes (98% CD14+) were obtained from buffy coats by Ficoll gradient centrifugation and immunomagnetic cell separation using anti-CD14-conjugated microbeads (VarioMACS; Miltenyi Biotec). […] Cells were cultured for 5 or 6 days (unless otherwise indicated) and the IL-4 and GM-CSF addition was repeated at day 3. Ligands or vehicle control (50% DMSO/ethanol) were added to the cell culture from the first day on. MonoMac-6 (MM6) cells were a kind gift of E. Duda (Biological Research Center, Szeged, Hungary).

[2] = tested on: ABCG2; experiment: Flow cytometry of ABCG2 cell surface expression in DCs (5D3 antibody); format: cell-based, human; conditions: DCs treated with RSG plus GW9662
Description: (§2) FACS analysis—Cell staining was performed using FITC- or PE-conjugated monoclonal antibodies: Labeled antibodies for flow cytometry included anti-CD1a-PE, CD1d-PE, CD80-PE, CD86-PE and isotype-matched controls (BD PharMingen). For the ABCG2 detection cells were fixed with 1% paraformaldehyde for 5 min, then incubated with unlabeled anti-ABCG2 (5D3) or isotype-matched control (R and D system) antibody for 30 min at 37° C., followed by staining with FITC-labeled anti-mouse antibody (BD PharMingen). The fluorescence of labeled cells was measured by using a FACSCalibur flow cytometer (Beckton Dickinson).

[3] = tested on: FABP4; experiment: RT-Q-PCR FABP4 transcript level in monocyte-derived DCs; format: cell-based, human
Description: (§3) Cell culture and ligand treatment—Monocytes (98% CD14+) were obtained from buffy coats by Ficoll gradient centrifugation and immunomagnetic cell separation using anti-CD14-conjugated microbeads (VarioMACS; Miltenyi Biotec). DCs were prepared as described previously (Szatmari, I. et al. (2004) Immunity 21, 95-106). In brief, monocytes were resuspended into six-well culture dishes at a density of 1.5×10^6 cells/ml and cultured in RPMI 1640 supplemented with 10% FBS (Invitrogen), containing 800 U/ml GM-CSF (Leucomax) and 500 U/ml IL-4 (Peprotech). Cells were cultured for 5 or 6 days (unless otherwise indicated) and the IL-4 and GM-CSF addition was repeated at day 3. Ligands or vehicle control (50% DMSO/ethanol) were added to the cell culture from the first day on. MonoMac-6 (MM6) cells were a kind gift of E. Duda (Biological Research Center, Szeged, Hungary). These cells were cultured in RPMI 1640 supplemented with 10% FBS.

[4] = tested on: CD1a; experiment: RT-Q-PCR CD1a transcript level in DCs; format: cell-based, human; conditions: PPARg activated DCs with 1 μM KO143; relative to cyclophilin A
Description: as §3

[5] = tested on: ABCG2; experiment: Hoechst 33342 retention in DCs by CLSM and FACS; format: cell-based, human; conditions: stimulated DCs, 1 μM KO143
Description: Measurement of Hoechst retention by CLSM and FACS—DCs were plated on Lab-Tek coverslip chambers. Cells were incubated with 0.5 μg/ml Hoechst 33342 for 1 h at 37° C. with or without KO143 (1 μM), then subjected to microscopic analysis. Hoechst fluorescence was measured on a Zeiss LSM 510 confocal microscope with a Plan-Apochromat 60× (NA 1.4) oil immersion objective using maximal detection pinhole diameter (1 mm) to get signal from the whole depth of the nucleus. Hoechst was excited by the 351 and 364 nm lines of an Ar ion laser, emission was measured through a 385-to-470 nm bandpass filter.
Hoechst content was also measured on a Becton Dickinson FACSVantage flow cytometer. Hoechst fluorescence was excited by the 351 and 364 nm lines and the blue and red Hoechst signals were detected through 402-to-446 nm and >650 nm filters, respectively.

[6] = tested on: ABCG2; experiment: Mitoxantrone uptake in DCs by FACS; format: cell-based, human; conditions: 30 min
Description: Measurement of mitoxantrone uptake by FACS analyses—Cells were resuspended in phenol red free HPMI medium containing the desired fluorescent compound (20 μM mitoxantrone) with or without KO143 (1 μM) and incubated at 37° C. for 30 min, Thereafter the cells were washed with cold HPMI and subjected to flow cytometric analyses. The cells were assessed for fluorescence intensity with a FACSCalibur cytometer (Beckton Dickinson).

[7] = tested on: CD1a; experiment: FACS cell surface expression of CD1a on DCs; format: cell-based, human; conditions: PPARg activated DCs (2.5 μM RSG) with 1 μM KO143
Description: as §2

[8] = tested on: CD1d; experiment: FACS cell surface expression of CD1d on DCs; format: cell-based, human; conditions: PPARg activated DCs (2.5 μM RSG) with 1 μM KO143
Description: as §2

[9] = tested on: CD80; experiment: FACS cell surface expression of CD80 on DCs; format: cell-based, human; conditions: PPARg activated DCs (2.5 μM RSG) with 1 μM KO143
Description: as §2

[10] = tested on: CD86; experiment: FACS cell surface expression of CD86 on DCs; format: cell-based, human; conditions: PPARg activated DCs (2.5 μM RSG) with 1 μM KO143
Description: as §2

[11] = tested on: DCs; conditions: MTT
Description: Cytotoxicity assay—Cytotoxicity assays were carried out using the MTT assay. Briefly, cells were plated in 96-well plates at a density of 10^5 cells per well. Mitoxantrone at various concentrations with or without KO143 was added to DCs and cells were incubated at 37° C. for 48 h. After incubation, cytotoxicity was assessed by using the MTT assay.

[12] = tested on: ABCA1; experiment: RT-Q-PCR ABCA1 mRNA level in DCs; format: cell-based, human; conditions: DCs cultured 24 h, 1 μM RSG or 1 μM T0901317
Description: as §1

[13] = tested on: ABCG1; experiment: RT-Q-PCR ABCG1 mRNA level in DCs; format: cell-based, human; conditions: DCs cultured 24 h, 1 μM RSG or 1 μM T0901317
Description: as §1

[14] = patients treated with 4 mg RSG; cited from earlier work
[15] = tested on: ABCG2; experiment: RT-Q-PCR ABCG2 transcript in MM6 cells; format: cell-based; conditions: after RSG alone or with LG268, 24 h
Description: (§4) RNA interference—For siRNA delivery the AMAXA's Nucleofection technology (AMAXA) was applied. MM6 cells (1×10^6) were harvested and electroporated with 1.5 μg siRNA using the Cell line nucleofector kit V (AMAXA), program v-001. Applicants used a previously described PPARg specific siRNA sequence (Kelly, D. et al. (2004) Nat Immunol 5, 104-112): […]-d(TT) (SEQ ID NO. 10). As a negative control, Silencer Negative Control 1 siRNA (Ambion) was used.
as §3

[16] = tested on: FABP4; experiment: RT-Q-PCR FABP4 transcript in MM6 cells; format: cell-based; conditions: after RSG alone or with LG268, 24 h
Description: as §4, §3

[17] = tested on: PPARg; experiment: RT-Q-PCR PPARg transcript in MM6 cells after RNA interference; format: cell-based; conditions: MM6 cells electroporated with 1.5 μg siRNA
Description: as §4, §3

[18] = tested on: PPARd; experiment: RT-Q-PCR PPARd transcript in MM6 cells after RNA interference; format: cell-based; conditions: MM6 cells electroporated with 1.5 μg siRNA
Description: as §4, §3

[19] = target: T1, PPARgamma:RXRalpha heterodimer (Mus musculus (PPARg); Homo sapiens …, UniProt P37238;P19793 P37238:1-505,P19793:1-462); experiment: EMSA; supershift with both antibodies; some aspecific binding also in blank; conditions: tags: T7 Quick TNT, full-length; label: 32P
[20] = target: T1, PPARgamma:RXRalpha heterodimer; experiment: competition; cold mutant at x10 and x20 does not compete; conditions: tags: T7 Quick TNT, full-length
[21] = target: T1, PPARgamma:RXRalpha heterodimer; experiment: EMSA; supershift with anti-RXRa and anti-PPARg; competed by cold WT; conditions: tags: T7 Quick TNT, full-length; label: 32P
[22] = ligand treated monocyte-derived DCs: 2.5 μM RSG, 100 nM GW347845X, 1 μM troglitazone, relative to 36B4

## O=C(Nc1ccccc1)c1cc([N+](=O)[O-])ccc1Cl [GW9662]
[1]; DCs, 2.5 μM RSG with 5 μM GW9662
  Effect of PPARg antagonist on RSG induction of ABCG2 mRNA: abolished the induction of ABCG2
[2]
  Cell surface expression of ABCG2 protein with PPARg antagonist: reduced

## COC(=O)c1ccccc1N[C@@H](Cc1ccc(OCCc2nc(-c3ccccc3)oc2C)cc1)C(=O)O [GW347845X]
[1]; [22]
  ABCG2 mRNA expression: induced
[3]; [22]
  FABP4 mRNA expression: induced

## COc1ccc2c3c([nH]c2c1)[C@H](CC(C)C)N1C(=O)[C@H](CCC(=O)OC(C)(C)C)NC(=O)[C@@H]1C3 [KO143]
[3]; PPARg activated DCs with 1 μM KO143, relative to cyclophilin A
  Transcript level of FABP4 with ABCG2 inhibitor: did not change
[4]
  CD1a mRNA expression with ABCG2 inhibitor: reduced
[5]
  Effect of ABCG2 inhibitor on reduced Hoechst dye accumulation: abolished the effect of the PPARg ligand treatment
[6]; 1 μM KO143, 20 μM mitoxantrone
  Mitoxantrone extrusion by ABCG2 in activated cells: fully inhibited
[7]
  Cell surface expression of CD1a with ABCG2 inhibitor: slightly decreased
[8]
  Cell surface expression of CD1d with ABCG2 inhibitor: did not change
[9]
  Cell surface expression of CD80 with ABCG2 inhibitor: did not change
[10]
  Cell surface expression of CD86 with ABCG2 inhibitor: did not change
[11]; RSG treated DCs with KO143, 48 h
  Effect of ABCG2 inhibitor on protection against mitoxantrone: removed this protective effect

## O=S(=O)(c1ccccc1)N(CC(F)(F)F)c1ccc(C(O)(C(F)(F)F)C(F)(F)F)cc1 [T0901317]
[1]; DCs cultured 24 h, 1 μM T0901317
  ABCG2 mRNA expression with LXR specific agonist: did not affect
[12]
  ABCA1 mRNA expression: profound upregulation
[13]
  ABCG1 mRNA expression: profound upregulation

## O=C1c2c(O)ccc(O)c2C(=O)c2c(NCCNCCO)ccc(NCCNCCO)c21 [mitoxantrone]
[6]; 20 μM mitoxantrone
  Mitoxantrone accumulation in control DCs: rapid
[11]; mitoxantrone 1.25 or 2.5 μg/ml, 48 h
  Cell viability of control DCs: induced cell death

## CN(CCOc1ccc(CC2SC(=O)NC2=O)cc1)c1ccccn1 (centres unmarked) [rosiglitazone]
[14]
  Plasma concentration: 50-350 ng/ml and 100-1000 nM

## GCCCTTCACTACTGTTGAC-d(TT) (sense GCCCTTCACTACTGTTGACTT; 3' dTdT overhang, further chemistry not given here) [PPARg-specific siRNA]
[15]
  Induction of ABCG2 in siRNA treated MM6 cells: impaired induction
[16]
  Induction of FABP4 in siRNA treated MM6 cells: impaired induction
[17]
  Expression of endogenous PPARg: effectively inhibited
[18]
  Expression of PPARd: did not interfere

B1: ABCG2 element C WT (dsDNA)
DNA 1: GGTCATTAGGTCAGATGTTAGATGA
DNA 2: TCATCTAACATCTGACCTAATGACC
[19]
  binding result: binds

B2: ABCG2 element A mut (dsDNA)
DNA 1: GGGGTGGGCGAGAGAGGGCAATGGC
DNA 2: GCCATTGCCCTCTCTCGCCCACCCC
[20]
  binding result: no binding

B3: ABCG2 element B mut (dsDNA)
DNA 1: GGGCACATTGAGAAAGGTTAAGTGA
DNA 2: TCACTTAACCTTTCTCAATGTGCCC
[20]
  binding result: no binding

B4: ABCG2 element B WT (dsDNA)
DNA 1: GGGCACAAGGTTAAAGGTTAAGTGA
DNA 2: TCACTTAACCTTTAACCTTGTGCCC
[19]
  binding result: binds

B5: ABCG2 element C mut (dsDNA)
DNA 1: GGTCATTTCGAGAGATGTTAGATGA
DNA 2: TCATCTAACATCTCTCGAAATGACC
[20]
  binding result: no binding

B6: ABCG2 element A WT (dsDNA)
DNA 1: GGGGTGGAGGGCAGAGGGCAATGGC
DNA 2: GCCATTGCCCTCTGCCCTCCACCCC
[21]
  binding result: binds
